Reference: ChEMBL document CHEMBL1909046, “DrugMatrix in vitro pharmacology data”

Columns and labels:
[1] = molecular target: T1, C-X-C chemokine receptor type 2 (Homo sapiens, UniProt P25025); assay type: cell membranes, Membrane; conditions: cho-k1; further: in other assays of this panel Not Active means under 50% inhibition at 10 µM
T1 sequence (P25025 whole entry): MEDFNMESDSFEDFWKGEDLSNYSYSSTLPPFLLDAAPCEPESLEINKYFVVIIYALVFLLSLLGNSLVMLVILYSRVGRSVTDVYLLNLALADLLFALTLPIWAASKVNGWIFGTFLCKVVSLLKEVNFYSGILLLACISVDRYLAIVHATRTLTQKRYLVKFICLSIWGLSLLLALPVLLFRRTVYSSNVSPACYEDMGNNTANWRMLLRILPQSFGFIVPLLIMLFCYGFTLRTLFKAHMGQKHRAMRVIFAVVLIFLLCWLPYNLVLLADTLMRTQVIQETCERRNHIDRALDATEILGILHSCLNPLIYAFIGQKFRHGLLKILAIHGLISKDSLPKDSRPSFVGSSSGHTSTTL

[2] = DRUGMATRIX: Phosphodiesterase PDE4 enzyme inhibition (substrate: [3H]cAMP + cAMP); conditions: u-937; Not Active = under 50% inhibition at 10 µM
[3] = molecular target: T2, Nitric oxide synthase, inducible (Mus musculus, UniProt P29477); set-up: species or system Escherichia coli;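 further: inhibition of iNOS enzyme activity measured with L-arginine as substrate; in other assays of this panel Not Active means under 50% inhibition at 10 µM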
T2 sequence (P29477 whole entry): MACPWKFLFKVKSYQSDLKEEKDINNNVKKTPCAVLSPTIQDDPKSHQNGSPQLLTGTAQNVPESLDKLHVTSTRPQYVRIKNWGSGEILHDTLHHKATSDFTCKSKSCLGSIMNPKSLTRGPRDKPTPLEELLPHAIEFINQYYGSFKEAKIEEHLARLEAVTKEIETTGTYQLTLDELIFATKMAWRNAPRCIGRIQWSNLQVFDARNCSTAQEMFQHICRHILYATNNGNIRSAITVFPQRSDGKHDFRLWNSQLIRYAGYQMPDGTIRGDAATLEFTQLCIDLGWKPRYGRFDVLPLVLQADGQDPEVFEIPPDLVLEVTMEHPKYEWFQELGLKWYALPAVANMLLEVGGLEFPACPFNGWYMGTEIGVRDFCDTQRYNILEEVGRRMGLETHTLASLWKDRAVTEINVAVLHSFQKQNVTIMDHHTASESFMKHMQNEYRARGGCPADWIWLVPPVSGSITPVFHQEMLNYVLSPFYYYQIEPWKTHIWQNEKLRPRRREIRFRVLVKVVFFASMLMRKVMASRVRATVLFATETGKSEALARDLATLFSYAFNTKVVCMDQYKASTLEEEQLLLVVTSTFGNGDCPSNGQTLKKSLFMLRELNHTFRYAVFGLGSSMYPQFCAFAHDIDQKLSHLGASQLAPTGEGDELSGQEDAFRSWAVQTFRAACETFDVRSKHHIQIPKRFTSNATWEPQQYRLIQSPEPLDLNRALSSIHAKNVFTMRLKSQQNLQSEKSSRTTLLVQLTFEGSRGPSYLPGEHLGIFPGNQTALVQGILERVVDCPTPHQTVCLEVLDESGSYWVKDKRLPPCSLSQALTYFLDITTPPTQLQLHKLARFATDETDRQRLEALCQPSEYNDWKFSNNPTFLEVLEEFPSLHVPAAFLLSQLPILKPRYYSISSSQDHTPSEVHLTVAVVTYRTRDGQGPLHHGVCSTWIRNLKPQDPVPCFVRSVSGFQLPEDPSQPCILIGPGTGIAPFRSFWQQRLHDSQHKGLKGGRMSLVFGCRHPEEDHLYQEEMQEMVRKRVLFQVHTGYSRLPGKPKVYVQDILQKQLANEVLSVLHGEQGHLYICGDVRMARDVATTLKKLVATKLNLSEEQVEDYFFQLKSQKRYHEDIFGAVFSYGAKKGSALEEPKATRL

[4] = molecular target: T3, Cholecystokinin receptor type A (Homo sapiens, UniProt P32238); assay type: cell membranes, Membrane; conditions: 1321-n1; further: in other assays of this panel Not Active means under 50% inhibition at 10 µM
T3 sequence (P32238 whole entry): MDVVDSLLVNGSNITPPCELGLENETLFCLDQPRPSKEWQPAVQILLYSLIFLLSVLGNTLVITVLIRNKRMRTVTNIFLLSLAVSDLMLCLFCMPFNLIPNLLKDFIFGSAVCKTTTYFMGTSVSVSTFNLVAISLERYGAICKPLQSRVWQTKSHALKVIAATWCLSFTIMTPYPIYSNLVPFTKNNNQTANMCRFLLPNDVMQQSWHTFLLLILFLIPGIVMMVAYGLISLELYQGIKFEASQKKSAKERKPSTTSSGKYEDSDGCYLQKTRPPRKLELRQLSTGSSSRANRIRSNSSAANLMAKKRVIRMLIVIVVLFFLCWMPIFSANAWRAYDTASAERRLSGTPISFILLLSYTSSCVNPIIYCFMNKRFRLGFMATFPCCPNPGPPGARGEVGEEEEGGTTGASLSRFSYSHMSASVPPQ

[5] = molecular target: D(3) dopamine receptor (Homo sapiens, UniProt P35462); assay: DRUGMATRIX: Dopamine D3 radioligand binding (ligand: [3H] Spiperone); assay type: cell membranes, CHO, Membrane; conditions: cho
[6] = molecular target: T4, Muscarinic acetylcholine receptor M2 (Homo sapiens, UniProt P08172); assay type: cell membranes, CHO-K1, Membrane; conditions: cho-k1; further: in other assays of this panel Not Active means under 50% inhibition at 10 µM
T4 sequence (P08172 whole entry): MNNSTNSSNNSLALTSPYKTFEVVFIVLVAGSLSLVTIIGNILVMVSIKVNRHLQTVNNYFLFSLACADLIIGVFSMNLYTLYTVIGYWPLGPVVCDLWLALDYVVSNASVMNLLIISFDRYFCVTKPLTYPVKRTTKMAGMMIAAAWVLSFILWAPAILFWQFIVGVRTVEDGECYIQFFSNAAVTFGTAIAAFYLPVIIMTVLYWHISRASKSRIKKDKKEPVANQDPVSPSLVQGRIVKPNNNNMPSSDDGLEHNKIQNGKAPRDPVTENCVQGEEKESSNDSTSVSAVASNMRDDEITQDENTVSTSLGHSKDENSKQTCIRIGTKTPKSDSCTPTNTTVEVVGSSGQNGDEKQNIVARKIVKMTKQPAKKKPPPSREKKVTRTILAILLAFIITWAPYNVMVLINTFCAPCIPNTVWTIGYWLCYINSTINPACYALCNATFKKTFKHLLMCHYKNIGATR

[7] = DRUGMATRIX: Tumor Necrosis Factor (TNF), Non-Selective radioligand binding (ligand: [125I] TNF-alpha); assay type: cell membranes, Membrane; conditions: u-937; Not Active = under 50% inhibition at 10 µM
[8] = molecular target: Beta-1 adrenergic receptor (Homo sapiens, UniProt P08588); assay: DRUGMATRIX: Adrenergic beta1 radioligand binding (ligand: [125I] Cyanopindolol); assay type: cell membranes, CHO-K1, Membrane; conditions: cho-k1; Not Active = under 50% inhibition at 10 µM
[9] = molecular target: Tyrosine-protein kinase Lck (Homo sapiens, UniProt P06239); assay: DRUGMATRIX: Protein Tyrosine Kinase, LCK enzyme inhibition (substrate: Poly(Glu:Tyr)); assay type: cell-based, Insect cells; conditions: insect cells; Not Active = under 50% inhibition at 10 µM
[10] = molecular target: Tyrosine-protein kinase Fyn (Homo sapiens, UniProt P06241); assay: biochemical; assay type: cell-based, Insect cells; conditions: insect cells
Chain of Tyrosine-protein kinase Fyn (P06241 whole entry): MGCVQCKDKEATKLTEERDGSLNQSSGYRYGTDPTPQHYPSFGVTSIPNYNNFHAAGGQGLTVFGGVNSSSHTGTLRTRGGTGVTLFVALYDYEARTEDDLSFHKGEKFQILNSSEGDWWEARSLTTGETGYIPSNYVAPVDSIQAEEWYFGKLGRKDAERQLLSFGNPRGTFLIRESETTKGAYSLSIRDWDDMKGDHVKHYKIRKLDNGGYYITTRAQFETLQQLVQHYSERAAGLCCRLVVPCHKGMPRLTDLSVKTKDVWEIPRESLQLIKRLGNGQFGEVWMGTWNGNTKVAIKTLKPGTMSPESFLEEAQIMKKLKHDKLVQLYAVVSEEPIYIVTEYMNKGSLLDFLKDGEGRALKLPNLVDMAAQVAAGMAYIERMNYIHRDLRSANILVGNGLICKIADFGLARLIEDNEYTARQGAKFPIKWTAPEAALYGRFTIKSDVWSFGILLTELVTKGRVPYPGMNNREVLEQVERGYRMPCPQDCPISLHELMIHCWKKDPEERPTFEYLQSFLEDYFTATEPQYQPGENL

Chain of Tyrosine-protein kinase Lck (P06239 whole entry): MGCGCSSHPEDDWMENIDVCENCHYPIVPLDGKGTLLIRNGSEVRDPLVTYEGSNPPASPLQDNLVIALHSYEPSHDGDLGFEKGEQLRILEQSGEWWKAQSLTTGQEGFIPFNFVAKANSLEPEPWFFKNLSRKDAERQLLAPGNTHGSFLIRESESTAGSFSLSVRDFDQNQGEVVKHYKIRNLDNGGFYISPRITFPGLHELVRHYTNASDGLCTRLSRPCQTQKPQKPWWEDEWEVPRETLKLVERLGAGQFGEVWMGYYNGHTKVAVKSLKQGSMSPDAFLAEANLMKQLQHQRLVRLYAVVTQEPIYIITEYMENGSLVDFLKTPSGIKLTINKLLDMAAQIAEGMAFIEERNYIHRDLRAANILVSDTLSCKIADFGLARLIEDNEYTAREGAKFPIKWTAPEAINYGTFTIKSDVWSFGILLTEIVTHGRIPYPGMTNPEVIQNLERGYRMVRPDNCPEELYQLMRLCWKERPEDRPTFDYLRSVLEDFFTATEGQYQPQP
Chain of D(3) dopamine receptor (P35462 whole entry): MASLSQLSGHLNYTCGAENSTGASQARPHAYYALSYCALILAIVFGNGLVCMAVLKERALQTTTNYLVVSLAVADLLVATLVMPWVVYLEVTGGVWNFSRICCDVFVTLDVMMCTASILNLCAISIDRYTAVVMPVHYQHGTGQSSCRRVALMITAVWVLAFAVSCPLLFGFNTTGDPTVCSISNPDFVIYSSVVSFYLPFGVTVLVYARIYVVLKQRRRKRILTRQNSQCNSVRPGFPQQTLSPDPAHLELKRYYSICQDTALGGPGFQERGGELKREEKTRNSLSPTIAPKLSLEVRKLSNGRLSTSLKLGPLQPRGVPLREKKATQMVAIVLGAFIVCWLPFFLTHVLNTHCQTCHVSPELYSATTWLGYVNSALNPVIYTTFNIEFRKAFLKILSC
Chain of Beta-1 adrenergic receptor (P08588 whole entry): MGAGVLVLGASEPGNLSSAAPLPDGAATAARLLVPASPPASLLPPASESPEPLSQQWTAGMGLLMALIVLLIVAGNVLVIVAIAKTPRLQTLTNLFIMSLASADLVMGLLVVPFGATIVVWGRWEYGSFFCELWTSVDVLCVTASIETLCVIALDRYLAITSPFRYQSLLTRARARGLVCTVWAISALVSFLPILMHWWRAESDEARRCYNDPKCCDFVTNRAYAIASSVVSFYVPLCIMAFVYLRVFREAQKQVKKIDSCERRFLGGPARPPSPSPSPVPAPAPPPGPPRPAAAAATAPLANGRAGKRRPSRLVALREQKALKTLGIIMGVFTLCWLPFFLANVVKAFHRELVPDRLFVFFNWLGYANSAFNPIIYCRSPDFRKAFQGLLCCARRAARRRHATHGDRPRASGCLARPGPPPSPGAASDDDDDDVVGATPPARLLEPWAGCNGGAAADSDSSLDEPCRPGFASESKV

c1ccc2[nH]c(-c3cscn3)nc2c1 [THIABENDAZOLE]
Not Active: IC50 [1] | IC50 [2] | Ki [2] | IC50 [3] | IC50 [4] | IC50 [5] | IC50 [6] | IC50 [7] | Ki [7] | IC50 [8] | IC50 [9] | IC50 [10]

Cc1ccc(C(=O)C(C)CN2CCCCC2)cc1 (stereo unspecified) [TOLPERISONE]
Not Active: IC50 [1] | IC50 [2] | Ki [2] | IC50 [3] | IC50 [4] | IC50 [5] | IC50 [6] | IC50 [7] | Ki [7] | IC50 [8] | IC50 [9] | IC50 [10]

NC(CO)(CO)CO [TROMETHAMINE]
Not Active: IC50 [1] | IC50 [2] | Ki [2] | IC50 [3] | IC50 [4] | IC50 [5] | IC50 [6] | IC50 [7] | Ki [7] | IC50 [8] | IC50 [9] | IC50 [10]

CN1[C@@H]2CC[C@H]1C[C@@H](OC(=O)c1c[nH]c3ccccc13)C2 [TROPISETRON]
Not Active: IC50 [1] | IC50 [2] | Ki [2] | IC50 [3] | IC50 [4] | IC50 [5] | IC50 [6] | IC50 [7] | Ki [7] | IC50 [8] | IC50 [9] | IC50 [10]

COc1cc(C(=O)NC2CCCNC2)cc(OC)c1OC (stereo unspecified) [TROXIPIDE]
Not Active: IC50 [1] | IC50 [2] | Ki [2] | IC50 [3] | IC50 [4] | IC50 [5] | IC50 [6] | IC50 [7] | Ki [7] | IC50 [8] | IC50 [9] | IC50 [10]

CC(C)[C@H](N)C(=O)OCCOCn1cnc2c(=O)nc(N)[nH]c21 [VALACYCLOVIR]
Not Active: IC50 [1] | IC50 [2] | Ki [2] | IC50 [3] | IC50 [4] | IC50 [5] | IC50 [6] | IC50 [7] | Ki [7] | IC50 [8] | IC50 [9] | IC50 [10]

CN[C@H](CC(C)C)C(=O)N[C@H]1C(=O)N[C@@H](CC(N)=O)C(=O)N[C@H]2C(=O)N[C@H]3C(=O)N[C@H](C(=O)N[C@H](C(=O)O)c4cc(O)cc(O)c4-c4cc3ccc4O)[C@H](O)c3ccc(c(Cl)c3)Oc3cc2cc(c3O[C@@H]2O[C@H](CO)[C@@H](O)[C@H](O)[C@H]2O[C@H]2C[C@](C)(N)[C@H](O)[C@H](C)O2)Oc2ccc(cc2Cl)[C@H]1O [VANCOMYCIN]
Not Active: IC50 [1] | IC50 [2] | Ki [2] | IC50 [3] | IC50 [4] | IC50 [5] | IC50 [6] | IC50 [7] | Ki [7] | IC50 [8] | IC50 [9] | IC50 [10]

COc1ccc(C(CN(C)C)C2(O)CCCCC2)cc1 (stereo unspecified) [VENLAFAXINE]
Not Active: IC50 [1] | IC50 [2] | Ki [2] | IC50 [3] | IC50 [4] | IC50 [5] | IC50 [6] | IC50 [7] | Ki [7] | IC50 [8] | IC50 [9] | IC50 [10]
